Test results taken from patent USRE40793E1, “Bicyclic benzamides of 3-or 4-substituted 4-(aminomethyl)-piperidine derivatives” (Janssen Pharmaceutica, N.V., priority 1997, dated 2009).

System: conscious dogs
Experiment: Gastric emptying of an acaloric liquid test meal delayed by administration of lidamidine, in conscious dogs
Format: in vivo, beagle dogs
Settings: compounds, conscious dog, Δt = t 70% compound minus t 70% solvent, relative to t 70% solvent; for ΔT/T^b (acceleration of gastric emptying of a liquid meal delayed by lidamidine) / change in vivo at 0.0025 mg/kg: dose 0.0025 mg/kg; for ΔT/T^a (acceleration of gastric emptying of a liquid meal delayed by lidamidine) / change in vivo at 0.01 mg/kg: dose 0.01 mg/kg; for change in vivo at 0.0025 mg/kg / change in vivo at 0.01 mg/kg: Canis lupus familiaris; for change in vivo at 0.0025 mg/kg: read-out: ΔT/T^b (acceleration of gastric emptying of a liquid meal delayed by lidamidine); for change in vivo at 0.01 mg/kg: read-out: ΔT/T^a (acceleration of gastric emptying of a liquid meal delayed by lidamidine)
Excerpt: C. Pharmacological Examples C.1. Gastric Emptying of an Acaloric Liquid Test Meal Delayed by Administration of Lidamidine, in Conscious Dogs
Female beagle dogs, weighing 7-14 kg, were trained to stand quietly in Pavlov frames. They were implanted with a gastric cannula under general anesthesia and aseptic precautions. After a medium laparatomy, an incision was made through the gastric wall in the longitudinal direction between the greater and the lesser curve, 2 cm above the nerves of Latarjet. The cannula was secured to the gastric wall by means of a double purse string suture and brought out via a stab wound at the left quadrant of the hypochondrium. Dogs were allowed a recovery period of at least two weeks. Experiments were started after a fasting period of 24 hours, during which water was available ad libitum. At the beginning of the experiment, the cannula was opened in order to remove any gastric juice or food remnants.
The stomach was cleansed with 40 to 50 ml lukewarm water. The test compound was administered I.V. (in a volume ≦3 ml via the vena cephalica), S.C. (in a volume ≦3 ml) or P.O. (in a volume of 1 ml/kg body weight, applied intragastrically via the cannula with a device that filled the lumen of the cannula: after injection of the test compound; 5 ml NaCl 0.9% was injected in order to correct for the dead space in the injection system). Immediately after administration of the test compound or its solvent, lidamidine (0.63 mg/kg was administered subcutaneously. 30 min later, the cannula was opened to determine the amount of fluid present in the stomach, promptly followed by reintroduction of the fluid. Then the test meal was administered via the cannula. This test meal consisted of 250 ml distilled water containing glucose (5 g/l) as a marker. The cannula remained closed for 30 min, whereafter the gastric contents were drained from the stomach to measure total volume (t=30 min). For later analysis 1 ml of the gastric contents was taken, promptly followed by reintroduction of the rest volume into the stomach. This sequence was repeated 4 times with 30 min intervals (t=60, 90, 120, 150 min).
In the 1 ml samples of the gastric contents, the glucose concentrations were measured on a Hitachi 717 automatic analyzer by the hexokinase method (Schmidt, 1961).
Curves were fitted to the measurement points (glucose versus time) using weighed non-linear regression analysis. Gastric emptying was quantified as the time needed to empty 70% of the meal (t 70%). The control emptying time was calculated as the mean t 70% of the last 5 solvent experiments of the same dog. Acceleration of delayed gastric emptying (Δt) was calculated as the time difference between t 70% compound and t 70% solvent. To correct for variations in emptying rate between dogs, Δt was expressed as % of t 70% solvent (Schuurkes et al. 1992)).

Compound | ΔT/T^b (acceleration of gastric emptying of a liquid meal delayed by lidamidine) | ΔT/T^a (acceleration of gastric emptying of a liquid meal delayed by lidamidine) | change in vivo at 0.0025 mg/kg | change in vivo at 0.01 mg/kg
(cis)-4-amino-5-chloro-2,3-dihydro-N-[[3-hydroxy-1-[3-(2-methyl-1,3-dioxolan-2-yl)propyl-]4-piperidinyl]methyl]-7-benzofurancarboxamide [Compound 7] | −0.07 | 0.11 | – | –
N#CCN1CC[C@@H](CNC(=O)c2cc(Cl)c(N)c3c2OCCC3)[C@H](O)C1 (relative stereo) [Compound 76] | – | −0.18 | – | –
CO[C@@H]1CN(CCCC(C)=O)CC[C@H]1CNC(=O)c1cc(Cl)c(N)c2c1OC(C)(C)C2.O=C(O)C(=O)O (relative stereo) [Compound 52] | – | −0.18 | – | –
COCCCN1CC[C@@H](CNC(=O)c2cc(Cl)c(N)c3c2OCC3)[C@H](OC)C1 (relative stereo) [Compound 30, trans-4-amino-5-chloro-2,3-dihydro-N-[[3-methoxy-1-(3-methoxypropyl)-4-piperidinyl]methyl]-7-benzofurancarboxamide] | – | – | -55% | -59%
N#CCCCN1CC[C@@H](CNC(=O)c2cc(Cl)c(N)c3c2OCCC3)[C@H](O)C1 (relative stereo) [Compound 77] | – | −0.18 | – | –
CCCCN1CC[C@@H](CNC(=O)c2cc(Cl)c(N)c3c2OCCC3)[C@H](O)C1 (relative stereo) [Compound 78, trans-5-amino-N-[(1-butyl-3-hydroxy-4-piperidinyl)methyl]-6-chloro-3,4-dihydro-2H-1-benzopyran-8-carboxamide] | – | – | -33% | -50%
COCCCN1CCC(O)(CNC(=O)c2cc(Cl)c(N)c3c2OC(C)(C)C3)CC1 [Compound 86] | −0.33 | −0.47 | – | –
CCCCN1CC[C@@H](CNC(=O)c2cc(Cl)c(N)c3c2OCC3)[C@H](OC)C1 (racemic) [Compound 29] | −0.32 | −0.51 | – | –
CCCCN1CC[C@@H](CNC(=O)c2cc(Cl)c(N)c3c2OCC3)[C@@H](O)C1 (racemic) [Compound 1] | −0.23 | −0.20 | – | –
CC(=O)CCCN1CC[C@@H](CNC(=O)c2cc(Cl)c(N)c3c2OCCO3)[C@@H](O)C1 (relative stereo) [Compound 58] | −0.20 | 0.09 | – | –
